From US7482124B2, “Method of identifying a PPARgamma-agonist compound having a decreased likelihood of inducing dose-dependent peripheral edema” (Bristol-Myers Squibb Company, priority 2005, dated 2009)
“And” between values parts separate entries of the source, which are not always exact repeats. Identical values can stand only once.

What was measured:
[1] = test system: human renin gene expression in CALU-6 cells; experiment: Renin gene expression in CALU-6 cells, quantitative RT-PCR dose-titration; assay type: cell-based
From the text: (§1) Cell line maintenance: CALU-6 cells and growth media were obtained from ATCC® (Manassas, Va.). CALU-6 cells were recovered and expanded in complete growth media (Minimal Essential Media+Earle's Balanced Salt Solution, 1% penicillin/streptomycin, 10% Fetal Bovine Serum). Antibiotics and FBS were purchased from Invitrogen.
(§2) Compounds: Compound A, Compound B, Compound D, Compound C, Compound G, Compound F, Compound H, Compound I, Compound J and Compound K were synthesized at Bristol-Myers Squibb Co. Compound E was purified by reverse phase high-performance liquid chromatography from commercial pharmaceutical preparations. Compounds A, B, F, and G are dual PPAR alpha and gamma agonists; while compounds C, D, and E are single PPAR gamma agonists. Fenofibrate and DMSO were purchased from Sigma. […]
(§3) Quantitative RT-PCR experiments: CALU-6 cells were seeded on day 0 in at 5×10^5 cells/well, in 6-well tissue culture plates. […] RNA quantities were determined spectrophotometrically using a SPECTRAMAX® 384 spectrophotometer (Molecular Devices). […] All data were further analyzed using Microsoft Excel. Fold-change in gene expression upon treatment with compound was expressed as […] ΔCt, where ΔΔCt=(Ctrenin, endothelin-1−CtGAPDH)DMSO−(Ctrenin, endothelin-1−CtGAPDH)treatment. […] Dose-titration experiments were further analyzed using GraphPad Prism Software (GraphPad Inc) to derive EC50 values. […]

[2] = test system: human endothelin-1 gene expression in CALU-6 cells; experiment: Endothelin-1 gene expression in CALU-6 cells, quantitative RT-PCR dose-titration; assay type: cell-based
From the text: as §1, §2, §3

[3] = test system: human renin gene expression in CALU-6 cells; experiment: Human renin expression profile in CALU-6 cells by quantitative RT-PCR (Example 7); assay type: cell-based; settings: qRT-PCR, CALU-6, 5×EC50, 24 hr, FIG. 11
Description: Since RAAS plays a fundamental role in fluid volume homeostasis, the possibility that PPAR agonists may contribute to agonist-induced edema mechanism of action through the modulation of other components of this system, specifically renin, was investigated using quantitative RT-PCR. Briefly, gene expression studies were performed using a cell line that was previously shown to express endogenous renin mRNA, CALU-6 (Lang et al., 1995).
The human lung carcinoma cell line, CALU-6, was chosen on account of it being previously shown to endogenously express renin. […]
(§4) Compounds A, B, C, D, and F were synthesized at Bristol-Myers Squibb Co. Compound E was purified by reverse phase high-performance liquid chromatography from commercial pharmaceutical preparations. […] The final concentration of each PPAR-agonist used in the induction studies was 5×EC50 as determined from pre-adipocyte differentiation studies (data not shown). […]
(§5) CALU-6 cells were seeded on day 0 in replicates of six (or twelve for DMSO control), at 5×10^5 cells/well, in 6-well tissue culture plates. […] RNA quantities were determined spectrophotometrically using a SPECTRAMAX® 384 spectrophotometer (Molecular Devices). RNA quality was assessed using an Agilent 2100 Bioanalyzer (Agilent Technologies) following the manufacturer's recommendations. […]

[4] = test system: human renin gene expression in CALU-6 cells; experiment: Human renin expression in CALU-6 cells by microarray analysis (Example 8); assay type: cell-based; settings: CALU-6, 5×EC50, 24 hr, FIGS. 12A-B
Description: As an independent measurement of the renin induction by PPAR agonists observed using RT-PCR (see Example 7 and FIG. 11), four of the experimental treatment groups described under the “Induction Experiments” section in Example 7, were analyzed on AFFYMETRIX® genechips, including; DMSO, Compound A, Compound B, and Compound E. Triplicate samples from each treatment group were analyzed.
All cDNA and cRNA synthesis as well as all hybridizations and subsequent washing steps were performed following the […]® Expression Analysis Technical Manual (Affymetrix). AFFYMETRIX® HG-U133A gene chips were used for all expression profiling studies in this invention.
Micro Array Suite (MAS) 5.0 (Affymetrix) software was used to pre-process all micro-array data. Each treated sample (including DMSO control) was first scaled to an average intensity value of 1500. The data was further analyzed in Excel '97 (Microsoft).
All treated samples were compiled into one Excel spreadsheet such that each compound treated sample (and DMSO control) was aligned for all 22283 genes on the HG-U133A […]®. Gene fold-change values were calculated by dividing the mean signal intensity of each treatment group by the mean signal intensity of the DMSO control. Pair-wise 2-tailed Student's t-tests were performed for each treatment group.

[5] = test system: human endothelin-1 gene expression in CALU-6 cells; experiment: Human endothelin-1 expression profile in CALU-6 cells by quantitative RT-PCR (Example 15); assay type: cell-based
Description: On account of the involvement of ET-1 in vascular tone maintenance, along with its involvement in numerous cardiovascular disease processes, the possibility that PPAR agonists may contribute to an agonist-induced edema mechanism of action through the modulation of endoethelin-1, was investigated using quantitative RT-PCR. Briefly, gene expression studies were performed using a cell line that was previously shown to express endogenous endothelin mRNA, CALU-6 (Lang et al., 1995).
The human lung carcinoma cell line, CALU-6, was obtained from ATCC®. […]
as §4, §5

patients = experiment: Dose-dependent peripheral edema in Phase II clinical trials CV168-006 and CV168-008; assay type: in vivo, human
Description: Genomic DNA samples from patients enrolled in two Bristol-Myers Squibb Company Phase II clinical trials CV168-006 and CV168-008 trials were genotyped for 50 SNPs identified in the human renin gene (see Example 1) and evaluated for association with edema.
498 subjects enrolled in the CV168-006 trial and 232 subjects from the CV168-008 trial were analyzed in this study. All analyses were based on data collected up to 24 weeks, which was the duration of the short-term phase of the trials. DNA was extracted from frozen blood by a third-party (Genaissance Inc, North Carolina) using a salting-out method (Gentra Systems). All subjects gave written informed consent.
The association between peripheral edema and the renin single nucleotide polymorphisms of the present invention were investigated by applying statistical analysis to the results of the genotyping assays described elsewhere herein. The central hypothesis of this analysis is that a predisposition to develop dose-dependent peripheral edema may be conferred by specific genomic factors. The analysis attempted to identify one or more of these factors in genomic DNA samples from index cases and matched control subjects who were exposed to Compound A in two Bristol-Myers Squibb (BMS) clinical studies (see Example 2).
Sample. Investigators in the BMS clinical trials diagnosed dose-dependent peripheral edema in some subjects.
Table A provides a distribution of the frequency of dose-dependent peripheral edema by treatment arm.

diabetics = settings: literature (Leff and Reed 2002; Nesto et al. 2003); cited from earlier work
[6] = Dose E (133 subjects), 40 fold Dose A

COc1ccc(OC(=O)N(CC(=O)O)Cc2ccc(OCCc3nc(-c4ccccc4)oc3C)cc2)cc1 [COM. A, N-[(4-methoxyphenoxy)carbonyl]-N-[[4-[2-(5-methyl-2-phenyl-4-oxazolyl)ethoxy]phenyl]methyl] glycine]
increase of renin mRNA, factor ([1]; CALU-6, qRT-PCR, FIG. 21A): fifteen to twenty
EC50 ([1]; Homo sapiens, mean ± SEM, renin up-regulation, dose-titration experiments (n = 3 to n = 18), CALU-6, 24 hr): 96.3 ± 32 nM
down-regulation of endothelin-1 gene expression, factor ([2]; CALU-6, qRT-PCR, FIG. 21A): four to five
IC50 ([2]; Homo sapiens, mean ± SEM, endothelin-1 down-regulation, dose-titration experiments (n = 3 to n = 18), CALU-6, 24 hr): 18 ± 6.07 nM
human renin expression, fold-change over DMSO treated cells [3]: significantly elevate
human renin expression, fold-change over DMSO treated cells [4]: significantly increased
difference in level of endothelin-1 repression compared to other PPAR agonists studied ([5]; CALU-6, 5×EC50): no significant difference
human endothelin-1 expression, fold-change over DMSO treated cells ([5]; qRT-PCR, CALU-6, 5×EC50, 24 hr, FIGS. 16 and 17): significantly decrease
Number of edema cases (patients; Dose A (79 subjects)): 16
edema cases (%) (patients; Dose A (79 subjects)): 20%
Number of edema cases (patients; Dose B (90 subjects)): 14
edema cases (%) (patients; Dose B (90 subjects)): 16%
Number of edema cases (patients; Dose C (125 subjects)): 13
edema cases (%) (patients; Dose C (125 subjects)): 10%
Number of edema cases (patients; Dose D (129 subjects)): 27
edema cases (%) (patients; Dose D (129 subjects)): 21%
Number of edema cases (patients; [6]): 54
edema cases (%) (patients; [6]): 40% and 41%
frequency of edema with dose (patients; dose increased from 0.5 mg to 20 mg): frequency of edema increased
edema in clinical use (diabetics): acceptable incidence and severity of edema
